Experiments:
[1] = Delivery agent plasma concentrations in humans after oral delivery agent capsules; assay type: in vivo, human
Protocol: Delivery agents 1-3 were investigated for their ability to penetrate the GI mucosa. The plasma concentration of each delivery agent was measured in human subjects after oral administration of delivery agent loaded capsules as a measure of each delivery agent's penetration efficiency.
Blood sampling for plasma delivery agent concentration determination (2 mL in sodium heparin tube) were drawn 15 minutes before dosing, and at 5, 10, 15, 30, and 45 minutes and 1, 1.5, 2, 3, 4, 6, 8, and 12 hours post-dose (14 samples per treatment) for delivery agent measurements in all treatment groups.
Two 18-gauge IV lines were situated prior to dosing; one for blood sampling, and the other for potential infusion of 20% glucose for subjects in groups 2 and 3. The subjects in group 1 only had one cannula inserted. The blood samples were centrifuged at 3000 rpm for a period of fifteen minutes at a temperature from about 2° C. to 8° C., within one hour of sample collection. Using a plastic pipette and without disturbing the red cell layer, the plasma from the collection tube was pipetted in duplicate for each analysis, blood glucose, Human Insulin, C-peptide, delivery agent into pre-labeled polypropylene tubes. The samples were stored at −70° C. until analysis.
The indicated doses were ingested by healthy human volunteers and the plasma concentrations of the delivery agents were monitored over time and the area under the curve (AUC) calculated. […] Similarly, oral administration of 800 mg of delivery agent number 3 produced more than a 23 fold greater penetration of the GI mucosa in humans than did oral administration of 750 mg of delivery agent 2 having n equal to 9 alkyl.

[2] = tested on: glucose infusion rate; experiment: Example 6: glucose clamp study, glucose infusion rate PD and relative biopotency; assay type: in vivo, human; settings: SC 15 U
Text: The glucose clamp technique was applied to compare the time-action profiles of the orally applied insulin in comparison to SC regular insulin. This method utilizes negative feedback from frequent blood glucose sample values to adjust a glucose infusion to maintain a defined and constant blood glucose level. The glucose infusion rate therefore becomes a measure of the pharmacodynamic effect of any insulin administered.
During each study visit, stabilized individual blood glucose concentrations were maintained after drug administration using a glucose clamp procedure. The glucose clamp technique [DeFronzo, et al. 1979, Glucose Clamp Technique: A Method of Quantifying Insulin Secretion and Resistance, Am. J. Physiol. 237: E214-E223.] was use to compare the time-action profiles of the orally-applied insulin to s.c. insulin. This method utilizes negative feedback from frequent blood glucose sample values to adjust a glucose infusion to maintain euglycemia. The glucose infusion rate becomes a measure of the pharmacodynamic effect of any insulin administered.
The clamp level was adjusted by a variable intravenous (IV) insulin infusion and glucose infusion rate during a 6 hour baseline period before dosing. During the last 2 hours before administration of the study medication, the insulin infusion was set to a rate of 0.2 mU/kg/min, which rate was not changed until the end of the experiment. At t=0 minutes, exogenous insulin was administered by oral administration or by SC injection. The PD response elicited by the study medication was registered for another 6 hours. No food intake was allowed during this period, but water could be consumed as desired.
The glucose clamp procedure was performed using a Biostator (glucose controlled insulin infusion system—GCIIS, Life Science Instruments, Elkhart, Ind., USA). A 17-gauge PTFE catheter was inserted into an antecubital vein for blood sampling and kept patent with 0.15 mol/L saline. A dorsal hand vein or lateral wrist vein of the same arm was cannulated in retrograde fashion for insertion of an 18-gauge PTFE double lumen catheter connected to the glucose sensor of the Biostator. The catheterized hand was placed in a hot box and warmed to an air temperature of 55° C. On the contralateral arm, a third vein was cannulated with an 18-gauge PTFE catheter to infuse a glucose solution (20% in water). Into the same vein, an insulin solution (regular human insulin in 0.15 mol/L saline diluted with 2 mL of the patient's blood per 100 mL) was continuously infused by means of a syringe pump (Perfusor Secura FT, Braun, Melsungen, Germany).
The primary PD endpoint of the study was the area under the glucose infusion rate curve (AUCGIR) in the first hr after drug administration (AUCGIR 0-1h). The secondary endpoints for pharmacodynamic assessment were the following parameters: Maximum glucose infusion rate (GIRmax), time to GIRmax (tGIRmax), area under the glucose infusion rate curve in defined time-intervals (AUCGIR 0-2h, AUCGIR 0-3h, AUCGIR 0-4h, AUCGIR 0-5h, AUCGIR 0-6h), time to early and late half-maximum glucose infusion rate (early and late TGIR 50%), and maximum reduction of C-peptide concentrations.
PD parameters used for analysis were the maximum glucose infusion rate after application of the study drugs (GIRmax), the time to maximum glucose infusion rate (tGIRmax), time to half-maximum GIR values before GIRmax (early tGIR 50%), time to half-maximum GIR values after GIRmax (late tGIR 50%), and the area under the glucose infusion rate versus time curves from 0 to 60, 120, 180, 240, 300, and 360 min after dosing, and from 180 to 360 min post dose (AUCGIR 0-1h, AUCGIR 0-2h, AUCGIR 0-3h AUCGIR 0-4h, AUCGIR 0-5h, AUCGIR 0-6h, AUCGIR 3-6h, respectively). In addition, plasma concentrations of C-peptide and plasma glucose concentrations were used for PD analysis. […]

| Compound | Fold greater penetration of the GI mucosa vs delivery agent 1 ([1]; humans, 800 mg vs 750 mg oral) | Fold greater penetration of the GI mucosa vs delivery agent 2 ([1]; humans, 800 mg vs 750 mg oral) [fold] | AUC ([1]; plasma, oral capsules, 800 mg, healthy human volunteers) [ng·h/mL] | GIR Early t50% [2] [min] | GIRmax [2] [mg/kg/min] | Glucose infusion rate AUC0-1h [2] [mg/kg] | Glucose infusion rate AUC0-2h [2] [mg/kg] | Glucose infusion rate AUC0-3h [2] [mg/kg] | Glucose infusion rate AUC0-4h [2] [mg/kg] | Glucose infusion rate AUC0-5h [2] [mg/kg] | Glucose infusion rate AUC0-6h [2] [mg/kg] | tGIRmax [2] [min] | GIR Early t50% ([2]; listed as SC Regular Insulin) [min] | GIRmax ([2]; listed as SC Regular Insulin) [mg/kg/min] | Glucose infusion rate AUC0-1h ([2]; listed as SC Regular Insulin) [mg/kg] | tGIRmax ([2]; listed as SC Regular Insulin) [min] |
| --- | --- | --- | --- | --- | --- | --- | --- | --- | --- | --- | --- | --- | --- | --- | --- | --- |
| O=C(O)CCCNC(=O)c1ccc(Cl)cc1O [4-CNAB, 4-[(4-chloro, 2-hydroxybenzoyl)amino]butanoic acid] | approximately 13.5 fold | > 23 | 47500 | – | – | – | – | – | – | – | – | – | – | – | – | – |
| SC insulin: human regular insulin injected subcutaneously (Humulin R or equivalent; Calbiochem insulin in the rat studies) | – | – | – | 150 ± 87 | 3.6 ± 1.8 | 27 ± 32 | 136.54 ± 106.54 | 271.43 ± 191.04 | 421.33 ± 264.76 | 548.83 ± 342.71 | 650.70 ± 380.16 | 255 ± 108 | 150.40 ± 87.44 | 3.57 ± 1.79 | 27.38 ± 32.22 | 255.30 ± 108.15 |

From patent publication US7429564B2, “Oral insulin therapy” (Emisphere Technologies, Inc., priority 2002, dated 2008)
